Data on 1 molecule can be found in paper PMC11729362, “Icariside II Preparation from Icariin Separated from Epimedium Herbal Extract Powder by a Special Icariin Glycosidase” (Journal of Microbiology and Biotechnology, 2024).

Structures are written as SMILES.

This assay relates to T1, special icariin glycosidase.
T1 construct: gene icariin 7-O-glucosidase; native enzyme purified from culture supernatant (methanol precipitation, DEAE-cellulose DE-52); about 75 kDa by SDS-PAGE
Put plainly: Lineweaver-Burk; HPLC and TLC of products and substrate. Type of assay: biochemical, Aspergillus sp. y48. The following applies: 45 °C, 9 h reaction, 0.4-2.0 mmol/L icariin; purified free enzyme.

Usually Km stands for the substrate concentration at which the rate is half of its maximum. As for `COc1ccc(-c2oc3c(CC=C(C)C)c(O[C@@H]4O[C@H](CO)[C@@H](O)[C@H](O)[C@H]4O)cc(O)c3c(=O)c2O[C@@H]2O[C@@H](C)[C@H](O)[C@@H](O)[C@H]2O)cc1` [icariin], the Km came out at 3.55 mM.
